SMILES strings stand for the structures.

By melting point is commonly meant the temperature of the solid-liquid transition. Molecule `COc1ccc2c(C(=O)Nc3nccs3)cn(C(C)C)c2c1` displayed a melting point of 182 to 185 °C. To `Cc1csc(NC(=O)c2cn(C(C)C)c3cc(Cl)ccc23)n1` belongs 201 to 203 °C; to `CC(C)n1cc(C(=O)Nc2ccc(Br)cn2)c2ccc(Cl)cc21`, 57 to 64 °C; to `Cc1ccc(NC(=O)c2cn(C(C)C)c3cc(Cl)ccc23)nc1`, 132 to 134 °C.

As to `Cc1cnc(NC(=O)c2cn(C(C)C)c3cc(Cl)ccc23)s1`, the melting point is 216 to 219 °C. As for `Cc1ccc2c(C(=O)Nc3nccs3)cn(C(C)C)c2c1`, the melting point lay within 215 to 217 °C. For `CC(C)n1cc(C(=O)Nc2ccc(C(F)(F)F)cn2)c2ccc(Cl)cc21` the value was 179 to 181 °C; for `CC(C)n1cc(C(=O)Nc2ncc(Cl)s2)c2ccc(Cl)cc21`, 252 to 253 °C. To `CC(C)CCn1cc(C(=O)Nc2nccs2)c2ccc(Cl)cc21` belongs 179 to 180 °C; to `CC(C)Cn1cc(C(=O)Nc2nccs2)c2ccc(Cl)cc21`, 200 to 202 °C; to `CCCCCn1cc(C(=O)Nc2nccs2)c2ccc(Cl)cc21`, 139 to 141 °C. For `CC(C)n1cc(C(=O)Nc2nccs2)c2ccc(Cl)cc21` the value was 202 to 204 °C; for `CC(C)n1cc(C(=O)Nc2nccs2)c2ccc(C(F)(F)F)cc21`, 246 to 247 °C. Molecule `CC(C)n1cc(C(=O)Nc2nccs2)c2ccc(O)cc21` returned a melting point of 239 to 241 °C. To `CC(C)n1cc(C(=O)Nc2ccccn2)c2ccc(Cl)cc21` belongs 149 to 150 °C; to `CC(C)n1cc(C(=O)Nc2nccs2)c2ccc([N+](=O)[O-])cc21`, 236 to 239 °C; to `CCn1cc(C(=O)Nc2nccs2)c2ccc(Cl)cc21`, 234 to 236 °C. For the molecule `CC(C)n1cc(C(=O)Nc2ncc(Br)s2)c2ccc(Cl)cc21`, the melting point was 240 to 242 °C.

Take `CC(C)n1cc(C(=O)Nc2ccc(Cl)cn2)c2ccc(Cl)cc21`: the melting point lay in the range of 131 to 134 °C. To `O=C(Nc1nccs1)c1cn(CC2CCC2)c2cc(Cl)ccc12` belongs 169 to 173 °C; to `O=C(Nc1nccs1)c1cn(CC2CCCCC2)c2cc(Cl)ccc12`, 181 to 183 °C. To `O=C(Nc1nccs1)c1cn(CC2CC2)c2cc(Cl)ccc12` belongs 185 to 187 °C; to `CC(C)n1cc(C(=O)Nc2nncs2)c2ccc(Cl)cc21`, 274 to 275 °C. `CCCCn1cc(C(=O)Nc2nccs2)c2ccc(Cl)cc21` showed a melting point of 168 to 169 °C. For `CSc1ccc2c(C(=O)Nc3nccs3)cn(C(C)C)c2c1` the value was 172 to 176 °C; for `O=C(Nc1nccs1)c1cn(CC2CCCC2)c2cc(Cl)ccc12`, 117 to 119 °C. For `CCOC(=O)Cc1csc(NC(=O)c2cn(C(C)C)c3cc(Cl)ccc23)n1` the value was 65 to 75 °C.

In turn, `CC(C)n1cc(C(=O)Nc2nccs2)c2ccc(S(C)(=O)=O)cc21` displayed a melting point of 247 to 249 °C. To `CCCn1cc(C(=O)Nc2nccs2)c2ccc(Cl)cc21` belongs 175 to 176 °C; to `CC(C)n1cc(C(=O)Nc2nccs2)c2ccc(Br)cc21`, 205 to 207 °C; to `CC(C)n1cc(C(=O)Nc2nccs2)c2ccc(F)cc21`, 203 to 204 °C.
